Reference: patent US11827543B2, “Method for continuous supply of superoxide-containing peracetate oxidant solution” (Clean Chemistry, Inc., priority 2014, dated 2023)

Tests used:
[1] = ORP (oxidative-reductive potential) measurement of solutions and treated water; format: physicochemical; settings: for ORP: 29 mM, pH 7; for ORP (mV vs SHE): early flowback water, Example 19, 1.7 mmol/L oxidant
Experimental: Example 9: Hydrogen Peroxide Residual Concentration and interference. A sodium peracetate oxidant solution was produced according to the procedure in Example 4 and diluted to 2800 mg/L (28.5 mmol/L) with either distilled water, for clean water conditions, or tap water containing about 0.18 mg/L copper, which served as an activation catalyst. Some samples were spiked with 30 or 60 mg/L (0.88 or 1.76 mmol/L, respectively) hydrogen peroxide from a 1000 mg/L stock solution. […] The temperature of the samples was maintained at 25±2° C. with a heated water bath. The ORP response was monitored over time to observe the impact of adding low concentrations of hydrogen peroxide. The pH was measured using a high sodium electrode (Oakton model 35805-05) with three point calibration and automatic temperature correction. The ORP (oxidative-reductive potential) of solutions was measured using an Oakton model 35805-15 ORP probe calibrated to the standard hydrogen electrode (SHE) using Thermo/Orion ORP standard 967901.
(§1) Water parameters were measured by a variety of methods. The pH was measured using a high sodium electrode (Oakton model 35805-05) with three point calibration and automatic temperature correction. The ORP (oxidative-reductive potential) of solutions was measured using an Oakton model 35805-15 ORP probe calibrated to the standard hydrogen electrode (SHE) using Thermo/Orion ORP standard 967901. Sodium ion concentration was measured using a Cole-Parmer ion selective electrode, EW-27504-30, with two point calibration of a sodium standard solution of NaCl. Chloride ion concentration was measured using a Cole-Parmer ion selective electrode, SC-27504-08, with two point calibration of a chloride standard solution of NaCl. All measurements using HACH methods were measured using a HACH DR900 colorimeter. Calcium, magnesium and total hardness concentrations were measured using HACH method 8030. Sulfate concentration was measured using HACH method 10248. Aluminum concentration was measured using HACH method 8012. Iron concentration was measured using HACH method 10249 modified with a longer reaction time to minimize interferences from organic impurities. Total suspended solids (TSS) concentration was measured using HACH method 8006 modified for smaller volumes. Turbidity was measured using HACH method 8237. ATP (adenosine triphosphate) concentration was measured using the LuminUltra 2nd Generation metabolic ATP measurement technology with the LuminUltra Quench Gone-Organic Modified sampling method, a PhotonMaster Luminometer and LumiCalc software. Acid producing bacteria (ABP) and sulfate reducing bacteria (SRB) cell culture concentrations were measured with standard 1 mL serial dilutions using Intertek APB and SRB culture media, 1% salinity.

[2] = Chlorine dioxide stock solution concentration over time (HACH DPD method); format: physicochemical; settings: 2800 mg/L stock solution, room temperature, 7 days
Experimental: Chlorine dioxide stock solution preparation: One AQUA-Tab 20 G chlorine dioxide tablet (Beckart Environmental, Inc.) was dissolved in 32 oz (946 mL) of distilled water in a closed polyethylene container according to the product instructions. The yellow solution was allowed to sit for at least 1 hour before use. The chlorine dioxide concentration was measured before use using the HACH DPD method no. 10126 after diluting 0.330 mL of the prepared chlorine dioxide stock solution with distilled water to 200 mL in a volumetric flask. The initial chlorine dioxide concentration of the stock solution was measured to be 2800 mg/L. The concentration decreased slowly over time at room temperature, e.g., 6.4% decrease in 7 days.

bacteria = test: ATP concentration (LuminUltra metabolic ATP measurement) in oxidant-treated water; format: cell-based; settings: produced water, Example 18, 0.30 mmol/L oxidant
pH of treated water = format: physicochemical
Experimental: as §1

[3] = produced water, Example 18, 0.30 mmol/L oxidant

SMILES: OO [hydrogen peroxide, reference compound]
- ORP [1]: about 0.5 V (SHE)

SMILES: [O][Cl+][O-] [chlorine dioxide, reference compound]
- decrease of concentration of stock solution [2]: 6.4%
- ATP (pg/mL), at 30 min CT (bacteria): 7.7 pg/mL
- ATP reduction at 30 min CT (bacteria): 94.3%
- ATP (pg/mL), at 15 min CT (bacteria; untreated 135): 10.3 pg/mL
- pH (pH of treated water; early flowback water, Example 19, 1.7 mmol/L oxidant, contact time 3 minutes): 6.33
- pH (pH of treated water; early flowback water, Example 19, 1.7 mmol/L oxidant, contact time 13 minutes): 6.32
- pH (pH of treated water; early flowback water, Example 19, 1.7 mmol/L oxidant, contact time 35 minutes): 6.32
- pH (pH of treated water; early flowback water, Example 19, 1.7 mmol/L oxidant, contact time 90 minutes): 6.36
- pH (pH of treated water; [3]): 5.6
- ORP (mV vs SHE) ([1]; contact time 3 minutes): 646 mV vs SHE
- ORP (mV vs SHE) ([1]; contact time 13 minutes): 580 mV vs SHE
- ORP (mV vs SHE) ([1]; contact time 35 minutes): 496 mV vs SHE
- ORP (mV vs SHE) ([1]; contact time 90 minutes): 456 mV vs SHE
- ORP (mV vs SHE), maximum [1, 3]: 818 mV vs SHE
- ORP after slow decrease ([1]; produced water, Example 18, 0.30 mmol/L, in the following 17 minutes): 785 mV vs SHE

SMILES: OCl [sodium hypochlorite, reference compound]
- ORP (constant) ([1]; diluted, pH 10.00±0.02, 25±2 °C): about 914 mV vs SHE

SMILES: OCl [hypochlorous acid, reference compound]
- ORP [1]: over 1.1 V (SHE)
